Experimental data: US8642592B2, “Oxo-heterocyclically substituted alkyl carboxylic acids and use thereof” (Bayer Intellectual Property GmbH, priority 2009, dated 2014)

What was measured:
[1] = target: T1, sGC (Rattus norvegicus, UniProt P20595); assay: sGC-activating activity in the CHO reporter cell in vitro; assay type: cell-based
T1 construct: expressed in transfected cells; host or cells: CHO reporter cell line
T1 sequence (P20595 1-619): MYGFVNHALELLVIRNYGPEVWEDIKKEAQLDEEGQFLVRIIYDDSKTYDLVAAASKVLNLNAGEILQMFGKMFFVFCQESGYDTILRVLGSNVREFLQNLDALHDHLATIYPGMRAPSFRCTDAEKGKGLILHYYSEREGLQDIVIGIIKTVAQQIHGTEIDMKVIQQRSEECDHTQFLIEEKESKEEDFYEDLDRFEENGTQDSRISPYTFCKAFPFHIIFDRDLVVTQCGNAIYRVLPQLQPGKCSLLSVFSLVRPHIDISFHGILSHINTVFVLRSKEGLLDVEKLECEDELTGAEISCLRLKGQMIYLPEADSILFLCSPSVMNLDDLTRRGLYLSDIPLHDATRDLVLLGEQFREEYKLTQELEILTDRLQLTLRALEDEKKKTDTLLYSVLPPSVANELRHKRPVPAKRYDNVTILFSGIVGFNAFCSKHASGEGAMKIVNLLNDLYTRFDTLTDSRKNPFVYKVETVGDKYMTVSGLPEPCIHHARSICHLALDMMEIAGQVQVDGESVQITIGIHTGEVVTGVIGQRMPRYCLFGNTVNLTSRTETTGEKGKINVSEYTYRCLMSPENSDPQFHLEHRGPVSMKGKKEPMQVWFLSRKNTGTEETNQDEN
T1 sequence (P19686 1-690 partner): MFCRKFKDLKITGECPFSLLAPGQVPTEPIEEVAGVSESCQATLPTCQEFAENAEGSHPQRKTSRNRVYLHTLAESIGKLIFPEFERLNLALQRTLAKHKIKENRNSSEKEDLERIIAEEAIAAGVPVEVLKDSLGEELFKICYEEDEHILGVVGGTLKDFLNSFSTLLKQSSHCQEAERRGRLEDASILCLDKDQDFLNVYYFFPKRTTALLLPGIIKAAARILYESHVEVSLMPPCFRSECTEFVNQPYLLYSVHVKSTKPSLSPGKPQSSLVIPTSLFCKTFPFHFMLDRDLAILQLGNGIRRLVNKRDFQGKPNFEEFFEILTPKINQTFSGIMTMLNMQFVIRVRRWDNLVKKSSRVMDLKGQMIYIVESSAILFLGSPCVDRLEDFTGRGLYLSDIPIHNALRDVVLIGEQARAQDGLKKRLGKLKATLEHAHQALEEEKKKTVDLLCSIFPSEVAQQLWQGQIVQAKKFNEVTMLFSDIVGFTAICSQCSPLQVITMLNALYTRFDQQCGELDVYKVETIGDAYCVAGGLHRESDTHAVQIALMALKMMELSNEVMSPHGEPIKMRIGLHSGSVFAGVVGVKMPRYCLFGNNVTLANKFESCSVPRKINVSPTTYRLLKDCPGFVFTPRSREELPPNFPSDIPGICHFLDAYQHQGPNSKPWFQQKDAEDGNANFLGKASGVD
Description: The cellular action of the compounds according to the invention is determined at a recombinant guanylate cyclase reporter cell line, as described in F. Wunder et al., Anal. Biochem. 339, 104-112 (2005).

[2] = target: T2, Heme-containing sGC (Rattus norvegicus, UniProt P20595); assay: Stimulation of recombinant soluble guanylate cyclase in vitro, heme-containing enzyme; assay type: biochemical
T2 construct: made in house; host or cells: baculovirus/Sf9 insect cells
T2 sequence (P20595 1-619): T1 sequence (P20595 1-619)
T2 sequence (P19686 1-690 partner): T1 sequence (P19686 1-690 partner)
From the text: Hoenicka, E. M. Becker, H. Apeler, T. Sirichoke, H. Schroeder, R. Gerzer and J.-P. Stasch, “Purified soluble guanylyl cyclase expressed in a baculovirus/Sf9 system: Stimulation by YC-1, nitric oxide, and carbon oxide”, J. Mol. Med. 77 (1999), 14-23. The heme-free guanylate cyclase is obtained by adding Tween 20 to the sample buffer (0.5% in the final concentration).
(§1) The activation of sGC by a test substance is reported as n-fold stimulation of the basal activity.

[3] = target: T3, Heme-free sGC (Rattus norvegicus, UniProt P20595); assay: Stimulation of recombinant soluble guanylate cyclase in vitro, heme-free enzyme; assay type: biochemical
T3 construct: made in house; host or cells: baculovirus/Sf9 insect cells
T3 sequence (P20595 1-619): T1 sequence (P20595 1-619)
T3 sequence (P19686 1-690 partner): T1 sequence (P19686 1-690 partner)
Description: Investigations on the stimulation of recombinant soluble guanylate cyclase (sGC) by the compounds according to the invention with and without sodium nitroprusside, and with and without the heme-dependent sGC inhibitor 1H-1,2,4-oxadiazolo-(4,3a)-quinoxalin-1-one (ODQ) are carried out by the method described in detail in the following reference: M. Hoenicka, E. M. Becker, H. Apeler, T. Sirichoke, H. Schroeder, R. Gerzer and J.-P. Stasch, “Purified soluble guanylyl cyclase expressed in a baculovirus/Sf9 system: Stimulation by YC-1, nitric oxide, and carbon oxide”, J. Mol. Med. 77 (1999), 14-23. The heme-free guanylate cyclase is obtained by adding Tween 20 to the sample buffer (0.5% in the final concentration).
as §1

MEC (minimum effective concentration), sGC-activating activity in the CHO reporter cell [1]: 10 nM
Stimulation (n-fold) of heme-containing sGC, Basal ([2]; 0.1 μM Example 1): 1.5 n-fold
Stimulation (n-fold) of heme-containing sGC, +0.1 μM DEA/NO ([2]; 0.1 μM Example 1 + 0.1 μM DEA/NO): 21.9 n-fold
Stimulation (n-fold) of heme-containing sGC, +10 μM ODQ ([2]; 0.1 μM Example 1 + 10 μM ODQ): 3.0 n-fold
Stimulation (n-fold) of heme-containing sGC, Basal ([2]; 1 μM Example 1): 1.4 n-fold
Stimulation (n-fold) of heme-containing sGC, +0.1 μM DEA/NO ([2]; 1 μM Example 1 + 0.1 μM DEA/NO): 19.3 n-fold
Stimulation (n-fold) of heme-containing sGC, +10 μM ODQ ([2]; 1 μM Example 1 + 10 μM ODQ): 3.7 n-fold
Stimulation (n-fold) of heme-containing sGC, Basal ([2]; 10 μM Example 1): 2.6 n-fold
Stimulation (n-fold) of heme-containing sGC, +0.1 μM DEA/NO ([2]; 10 μM Example 1 + 0.1 μM DEA/NO): 20.0 n-fold
Stimulation (n-fold) of heme-containing sGC, +10 μM ODQ ([2]; 10 μM Example 1 + 10 μM ODQ): 10.3 n-fold
Stimulation (n-fold) of heme-containing sGC, Basal ([2]; 100 μM Example 1): 14.0 n-fold
Stimulation (n-fold) of heme-containing sGC, +0.1 μM DEA/NO ([2]; 100 μM Example 1 + 0.1 μM DEA/NO): 37.8 n-fold
Stimulation (n-fold) of heme-containing sGC, +10 μM ODQ ([2]; 100 μM Example 1 + 10 μM ODQ): 46.6 n-fold
Effect of combination with the NO donor DEA/NO on sGC stimulation ([2]; combination with DEA/NO, heme-containing sGC): no synergistic effect
Effect of the heme-dependent sGC inhibitor ODQ on sGC activation ([2]; with ODQ, heme-containing sGC, effect is in fact increased): not blocked
Stimulation (n-fold) of heme-free sGC, Basal ([3]; 0.1 μM Example 1): 1.4 n-fold
Stimulation (n-fold) of heme-free sGC, Basal ([3]; 1 μM Example 1): 1.7 n-fold
Stimulation (n-fold) of heme-free sGC, Basal ([3]; 10 μM Example 1): 8.4 n-fold
Stimulation (n-fold) of heme-free sGC, Basal ([3]; 100 μM Example 1): 111.8 n-fold
SMILES: O=C(NCCCCC1(C(=O)O)CC1)C(c1ccc(CN2N=C(c3ccccc3)OCC2=O)cc1)C1CCCC1 (single isomer, unassigned; (+)) [Example 1, (+)-1-(4-{[2-cyclopentyl-2-{4-[(5-oxo-2-phenyl-5,6-dihydro-4H-1,3,4-oxadiazin-4-yl)methyl]phenyl}-acetyl]amino}butyl)cyclopropanecarboxylic acid]
